Measured values taken from patent US6737383B1, “Herbicidal oxadiazolidines” (priority 1999, dated 2004).

Experiments:
surinam grass = test: Test B pre/postemergence surinam grass; type: in vivo, Brachiaria decumbens
In short: (§1)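 Test chemicals in a non-phytotoxic solvent mixture with surfactant were sprayed preemergence onto planted seeds and postemergence onto plants 2 to 18 cm tall (1- to 4-leaf stage). After twelve to sixteen days in a greenhouse, injury was visually rated against untreated controls from 0 (no effect) to 10 (complete control).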

cocklebur = test: Test B pre/postemergence cocklebur; type: in vivo, Xanthium strumarium
In short: as §1

corn = test: Test B pre/postemergence corn; type: in vivo, Zea mays
In short: as §1

crabgrass = test: Test B pre/postemergence crabgrass; type: in vivo, Digitaria sanguinalis
In short: as §1

giant foxtail = test: Test B pre/postemergence giant foxtail; type: in vivo, Setaria faberii
In short: as §1

morningglory = test: Test B pre/postemergence morningglory; type: in vivo, Ipomoea hederacea
In short: as §1

pigweed = test: Test B pre/postemergence pigweed; type: in vivo, Amaranthus retroflexus
In short: as §1

rape = test: Test B pre/postemergence rape; type: in vivo, Brassica napus
In short: as §1

sugar beet = test: Test B pre/postemergence sugar beet; type: in vivo, Beta vulgaris
In short: as §1

wheat = test: Test B pre/postemergence wheat; type: in vivo, Triticum aestivum
In short: as §1

wild oat = test: Test B pre/postemergence wild oat; type: in vivo, Avena fatua
In short: as §1

purple nutsedge = test: Test B pre/postemergence purple nutsedge; type: in vivo, Cyperus rotundus
In short: as §1

rice = test: Test B flood test rice; type: in vivo, Oryza sativa
In short: (§2)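 Flood test on plants grown to the 2-leaf stage; treated plants kept in greenhouse twelve to sixteen days, then visually rated against controls on a 0 (no effect) to 10 (complete control) scale.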

smallflower flatsedge = test: Test B flood test smallflower flatsedge; type: in vivo, Cyperus difformis
In short: as §2

duck salad = test: Test B flood test duck salad; type: in vivo, Heteranthera limosa
In short: as §2

bamyardgrass = test: Test B flood test barnyardgrass; type: in vivo, Echinochloa crus-galli
In short: as §2

[1] = Postemergence, Rate 62 g/ha, scale 0 to 10, 0 is no effect, 10 is complete control
[2] = Postemergence, Rate 250 g/ha, scale 0 to 10, 0 no effect, 10 complete control
[3] = Preemergence, Rate 62 g/ha, scale 0 to 10 (0 no effect, 10 complete control)
[4] = Preemergence, Rate 125 g/ha, scale 0 to 10 (0 no effect, 10 complete control)
[5] = Preemergence, Rate 250 g/ha, scale of 0 to 10 where 0 is no effect and 10 is complete control
[6] = Preemergence, Rate 500 g/ha, scale 0 (no effect) to 10 (complete control)
[7] = Rate 125 g/ha, Postemergence, scale 0 to 10, 0 no effect, 10 complete control
[8] = Rate 500 g/ha, Postemergence, scale 0 to 10, 0 no effect, 10 complete control
[9] = Rate 62 g/ha, headed Pre-emergence (flood test species), scale 0 to 10 (0 no effect, 10 complete control)
[10] = Rate 125 g/ha, Pre-emergence, flood test species, scale 0 to 10 where 0 is no effect and 10 is complete control
[11] = Rate 250 g/ha, headed Pre-emergence (flood test species), scale 0 to 10 (0 no effect, 10 complete control)
[12] = Rate 500 g/ha, headed Pre-emergence (flood test species), scale 0 to 10 (0 no effect, 10 complete control)

CCN(Cc1ccccc1)C(=O)n1oc(=O)n(-c2c(C)cccc2C)c1=O [Compound 70]
0: B. signalgrass plant response rating (surinam grass; [1]) | B. signalgrass plant response rating (surinam grass; [2]) | B. signalgrass plant response rating (surinam grass; [3]) | Plant response rating, B. signalgrass (surinam grass; [4]) | Plant response rating, B. signalgrass (surinam grass; [5]) | B. signalgrass plant response rating (surinam grass; [6]) | B. signalgrass plant response rating (surinam grass; [7]) | B. signalgrass plant response rating (surinam grass; Rate 500 g/ha, Postemergence, scale of 0 to 10 where 0 is no effect and 10 is complete control) | Cocklebur plant response rating (cocklebur; [1]) | Cocklebur plant response rating (cocklebur; [2]) | Cocklebur plant response rating (cocklebur; [3]) | Plant response rating, Cocklebur (cocklebur; [4]) | Plant response rating, Cocklebur (cocklebur; [5]) | Cocklebur plant response rating (cocklebur; [6]) | Cocklebur plant response rating (cocklebur; [7]) | Cocklebur plant response rating (cocklebur; [8]) | Corn plant response rating (corn; [1]) | Corn plant response rating (corn; [2]) | Corn plant response rating (corn; [3]) | Plant response rating, Corn (corn; [4]) | Plant response rating, Corn (corn; [5]) | Corn plant response rating (corn; [6]) | Corn plant response rating (corn; [7]) | Corn plant response rating (corn; [8]) | Crabgrass plant response rating (crabgrass; [1]) | Crabgrass plant response rating (crabgrass; [2]) | Crabgrass plant response rating (crabgrass; [3]) | Plant response rating, Crabgrass (crabgrass; [4]) | Plant response rating, Crabgrass (crabgrass; [5]) | Crabgrass plant response rating (crabgrass; [6]) | Crabgrass plant response rating (crabgrass; [7]) | Crabgrass plant response rating (crabgrass; [8]) | Giant foxtail plant response rating (giant foxtail; [1]) | Giant foxtail plant response rating (giant foxtail; [2]) | Giant foxtail plant response rating (giant foxtail; [3]) | Plant response rating, Giant foxtail (giant foxtail; [4]) | Plant response rating, Giant foxtail (giant foxtail; [5]) | Giant foxtail plant response rating (giant foxtail; [6]) | Giant foxtail plant response rating (giant foxtail; [7]) | Giant foxtail plant response rating (giant foxtail; [8]) | Morningglory plant response rating (morningglory; [1]) | Morningglory plant response rating (morningglory; [2]) | Morningglory plant response rating (morningglory; [3]) | Plant response rating, Morningglory (morningglory; [4]) | Plant response rating, Morningglory (morningglory; [5]) | Morningglory plant response rating (morningglory; [6]) | Morningglory plant response rating (morningglory; [7]) | Morningglory plant response rating (morningglory; [8]) | Redroot pigweed plant response rating (pigweed; [1]) | Redroot pigweed plant response rating (pigweed; [2]) | Redroot pigweed plant response rating (pigweed; [3]) | Plant response rating, Redroot pigweed (pigweed; [4]) | Plant response rating, Redroot pigweed (pigweed; [5]) | Redroot pigweed plant response rating (pigweed; [6]) | Redroot pigweed plant response rating (pigweed; [7]) | Redroot pigweed plant response rating (pigweed; [8]) | Rape plant response rating (rape; [1]) | Rape plant response rating (rape; [2]) | Rape plant response rating (rape; [3]) | Plant response rating, Rape (rape; [4]) | Plant response rating, Rape (rape; [5]) | Rape plant response rating (rape; [6]) | Rape plant response rating (rape; [7]) | Rape plant response rating (rape; [8]) | Sugarbeets plant response rating (sugar beet; [1]) | Sugarbeets plant response rating (sugar beet; [2]) | Sugarbeets plant response rating (sugar beet; [3]) | Plant response rating, Sugarbeets (sugar beet; [4]) | Plant response rating, Sugarbeets (sugar beet; [5]) | Sugarbeets plant response rating (sugar beet; [6]) | Sugarbeets plant response rating (sugar beet; [7]) | Sugarbeets plant response rating (sugar beet; [8]) | Wheat plant response rating (wheat; [1]) | Wheat plant response rating (wheat; [2]) | Wheat plant response rating (wheat; [3]) | Plant response rating, Wheat (wheat; [4]) | Plant response rating, Wheat (wheat; [5]) | Wheat plant response rating (wheat; [6]) | Wheat plant response rating (wheat; [7]) | Wheat plant response rating (wheat; [8]) | Wild oats plant response rating (wild oat; [1]) | Wild oats plant response rating (wild oat; [2]) | Wild oats plant response rating (wild oat; [3]) | Plant response rating, Wild oats (wild oat; [4]) | Plant response rating, Wild oats (wild oat; [5]) | Wild oats plant response rating (wild oat; [6]) | Wild oats plant response rating (wild oat; [7]) | Wild oats plant response rating (wild oat; [8]) | Nutsedge plant response rating (purple nutsedge; [1]) | Nutsedge plant response rating (purple nutsedge; [2]) | Nutsedge plant response rating (purple nutsedge; [3]) | Plant response rating, Nutsedge (purple nutsedge; [4]) | Plant response rating, Nutsedge (purple nutsedge; [5]) | Nutsedge plant response rating (purple nutsedge; [6]) | Nutsedge plant response rating (purple nutsedge; [7]) | Nutsedge plant response rating (purple nutsedge; [8]) | Rice plant response rating (rice; [9]) | Rice plant response rating (rice; [10]) | Rice plant response rating (rice; [11]) | Plant response rating, Rice (rice; [12]) | S. Flatsedge plant response rating (smallflower flatsedge; [9]) | S. Flatsedge plant response rating (smallflower flatsedge; [10]) | S. Flatsedge plant response rating (smallflower flatsedge; [11]) | Plant response rating, S. Flatsedge (smallflower flatsedge; [12]) | Ducksalad plant response rating (duck salad; [9]) | Ducksalad plant response rating (duck salad; [10]) | Ducksalad plant response rating (duck salad; [11]) | Plant response rating, Ducksalad (duck salad; [12]) | Barnyardgrass plant response rating (bamyardgrass; [9]) | Barnyardgrass plant response rating (bamyardgrass; [10]) | Barnyardgrass plant response rating (bamyardgrass; [11]) | Plant response rating, Barnyardgrass (bamyardgrass; [12])
